Measured values reported in paper PMC6268327 (2012).

Assays:
[1] = system: C-myc DNA (NHE III1 promoter fragment duplex) (DNA, duplex) GGGAGGGTGGGGAAGG/CCTTCCCCACCCTCCC; assay: fluorescence quenching titration (double-log plot); conditions: Tris-HCl buffer 100 mM (no metal cations given); 100 mM Tris-HCl, pH 7.4; 298 K; 1 μM compound; double-log fit, apparent
[2] = system: p53 DNA (P1 promoter fragment duplex) (DNA, duplex) CCTCCTCCCCAACTCC/GGAGTTGGGGAGGAGG; assay: fluorescence quenching titration (double-log plot); conditions: Tris-HCl buffer 100 mM (no metal cations given); 100 mM Tris-HCl, pH 7.4; 298 K; 1 μM compound; double-log fit, apparent

SMILES	Kb [1] [L/mol]	Kb [2] [L/mol]
Oc1ccc2ccc3cccc4ccc1c2c34	404000	1.16e+06
OCCCCc1ccc2ccc3cccc4ccc1c2c34	1390	2040
